Source: US4575498A, “Method for restoring depleted purine nucleotide pools” (priority 1983, dated 1986)

Tested on: skeletal muscle
Test: AICAriboside infusion: nucleotide, nucleoside and base content of skeletal (gastrocnemius) muscle biopsies
Assay type: in vivo, mongrel dogs
Set-up: AMP / ADP / ATP / TAN / IMP / Hyp (hypoxanthine): unit not given beside the values
Conditions: for TAN: total adenine nucleotide
[1] = 2 min postinfusion, P < 0.05 vs control
[2] = 30 min of AICAriboside infusion
[3] = 30 min of AICAriboside infusion, P < 0.05 vs control

SMILES: NC(=O)c1ncn([C@@H]2O[C@H](CO)[C@@H](O)[C@H]2O)c1N [AICAriboside, 5-amino-4-imidazolecarboxamide riboside]
- AMP (2 min postinfusion): 0.016 ± 0.002
- Hyp (hypoxanthine) (2 min postinfusion): 0.022 ± 0.009
- Ino (inosine) (2 min postinfusion): 0.024 ± 0.008
- ADP [1]: 0.65 ± 0.06
- ATP [1]: 4.68 ± 0.45
- IMP [1]: 0.046 ± 0.012
- ADP (22 min postinfusion): 0.59 ± 0.03
- AMP (22 min postinfusion): 0.014 ± 0.003
- ATP (22 min postinfusion): 4.34 ± 0.21
- Hyp (hypoxanthine) (22 min postinfusion): 0.021 ± 0.008
- Ino (inosine) (22 min postinfusion): 0.024 ± 0.011
- IMP (22 min postinfusion, P < 0.05 vs control): 0.045 ± 0.016
- ADP [2]: 0.53 ± 0.04
- AMP [2]: 0.016 ± 0.009
- ATP [2]: 3.92 ± 0.23
- Hyp (hypoxanthine) [3]: 0.024 ± 0.007
- IMP [3]: 0.050 ± 0.012
- Ino (inosine) [3]: 0.035 ± 0.009
- ADP (60 min postinfusion): 0.56 ± 0.05
- AMP (60 min postinfusion): 0.018 ± 0.007
- ATP (60 min postinfusion): 3.60 ± 0.41
- Hyp (hypoxanthine) (60 min postinfusion): 0.041 ± 0.017
- Ino (inosine) (60 min postinfusion): 0.055 ± 0.031
- IMP (60 min postinfusion, P < 0.05 vs control): 0.043 ± 0.015
- increase in IMP content (AICAriboside infusion): 6-7 fold
- guanine nucleotide content (not statistically significant): tended to increase
- content of inosine and hypoxanthine (throughout infusion and up to 60 min thereafter): consistently elevated
- content of NAD^+ (throughout infusion, did not vary): 0.32 ± 0.04 µmol/g
- TAN [1]: 5.34 ± 0.51
- TAN (22 min postinfusion): 4.94 ± 0.23
- TAN [2]: 4.47 ± 0.27
- TAN (60 min postinfusion): 4.18 ± 0.44
